Here are results for one compound from patent US11629135B2 (JUBILANT PRODEL LLC, priority 2017, dated 2023).

pIC50: −log10 of the molar value. Bounds are passed on as bounds.

What all share (type): in vitro ADME
The target of series [1] is T1, CYP2C19 (Homo sapiens, UniProt P33261).
T1 construct: assessed in human liver microsomes (procured from GIBCO Invitrogen); tissue GIBCO Invitrogen; host or cells: human liver microsomes
The series is described as follows: CYP inhibition in human liver microsomes (CYP2C19). The conditions noted are these: hydroxylation of omeprazole (CYP2C19 per method), read-out: predicted IC50, hydroxylation of omeprazole. How it is done:
CYP inhibition potential of compound was assessed in human liver microsomes (procured from GIBCO Invitrogen) against CYP3A4, 2D6, 2C9, 2C19 and 1A2 in the following sequential steps. Standard reaction mixture (final volume 300 μL) contained […] potassium phosphate buffer (pH 7.4), protein (0.1, 0.25, 0.5, 0.5 and 0.5 mg/mL concentration for CYP3A4, 2D6, 2C9 2C19 and 1A2 respectively) and compound (at eight different concentration levels ranging from […], added as 0.9 μL DMSO solution with a final DMSO concentration of […]). The mixtures were pre-incubated at 37±1° C. for 5 min. The reaction (in duplicate) was initiated by addition of 30 μL of NADPH (10 mM). Reaction was terminated at 10 min by adding 300 μL of acetonitrile. The activity of liver microsomes was confirmed with positive controls i.e., monitoring the hydroxylation of midazolam for CYP 3A4, hydroxylation of bufuralol for CYP 2D6, hydroxylation of diclofenac for CYP 2C9, hydroxylation of omeprazole for CYP2C19 and O-Deethylation for CYP 1A2. The reaction mixtures (obtained from the above studies) were extracted, processed and analyzed by LC-MS [Shimadzu SIL LC series (Kyoto, Japan) was coupled to an API-4000 Mass Spectrometer (MDS Sciex, Toronto, Canada)].

A short description of series [2]: Metabolic stability in liver microsomes (dog). To be noted: dog liver microsomes 0.5 mg/mL, compound 1 μM, NADPH, up to 30 min. How it is done:
(§1) Metabolic Stability in Liver Microsomes
(§2) Procedure: Potassium phosphate buffer (66.7 mM, pH 7.4) containing mouse or rat or dog or monkey or human liver microsomes (0.5 mg/mL) was pre-incubated separately with compound (1 μM) and positive control (verapamil, 1 μM) in a 37° C. water bath for 5 min. The reactions were initiated by adding 20 μL of 10 mM NADPH. Reactions without NADPH (0 and 30 min) were also incubated to rule out non-NADPH metabolism or chemical instability in the incubation buffer. All reactions were terminated using 200 μL of ice-cold acetonitrile containing internal standard at 0, 5, 15 and 30 min. The vials were centrifuged at 3000 rpm for 15 min. The reaction mixtures (obtained from the above studies) were extracted, processed and analyzed by LC-MS [Shimadzu SIL LC series (Kyoto, Japan) was coupled to an API-4000 Mass Spectrometer (MDS Sciex, Toronto, Canada)] to monitor the disappearance of compound.

Series [3] in a line: Metabolic stability in liver microsomes (rat). The conditions noted are these: rat liver microsomes 0.5 mg/mL, compound 1 μM, NADPH, up to 30 min. The procedure: as §1, §2
The nature of series [4]: Metabolic stability in liver microsomes (human). The conditions noted are these: human liver microsomes 0.5 mg/mL, compound 1 μM, NADPH, up to 30 min. How it is done: as §1, §2

T1 sequence (P33261 whole entry): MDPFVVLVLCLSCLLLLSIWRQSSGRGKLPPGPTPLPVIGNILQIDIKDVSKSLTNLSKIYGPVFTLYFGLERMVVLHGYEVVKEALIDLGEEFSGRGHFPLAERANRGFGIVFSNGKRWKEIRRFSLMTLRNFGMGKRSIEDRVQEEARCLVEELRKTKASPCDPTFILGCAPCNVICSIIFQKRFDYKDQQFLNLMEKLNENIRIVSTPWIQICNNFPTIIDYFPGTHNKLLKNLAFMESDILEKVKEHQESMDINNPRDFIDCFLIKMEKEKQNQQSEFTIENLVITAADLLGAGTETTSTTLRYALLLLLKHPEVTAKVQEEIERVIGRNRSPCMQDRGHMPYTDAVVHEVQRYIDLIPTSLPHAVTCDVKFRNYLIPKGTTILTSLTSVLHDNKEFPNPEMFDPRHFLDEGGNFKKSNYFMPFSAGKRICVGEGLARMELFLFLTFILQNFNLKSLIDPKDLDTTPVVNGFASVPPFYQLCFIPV

In the case of `COc1nc(OCc2cccc(-c3ccccc3)c2C)nc(OC)c1CN1CCCC[C@H]1C(=O)O` [Compound 45, (S)-1-((4,6-dimethoxy-2-((2-methyl-[1,1′-biphenyl]-3-yl)methoxy)pyrimidin-5-yl)methyl)piperidine-2-carboxylic acid], the negative logarithm of the IC50 (pIC50) in series [1] was less than 5.00. For the same compound, the “Metabolic stability in liver microsomes” value in series [2], in series [3] and in series [4] was more than 80% in each case.
